Data on one compound can be found in US20090156609A1, “TREATMENT OF POST-TRAUMATIC STRESS DISORDER WITH TETRAHYDROINDOLONE ARYLPIPERZAINE COMPOUNDS” (priority 2007, published 2009).

The nature of data set [1]: Neuromuscular coordination (rotarod). Also noted: species or system mice. The note with it: male, Swiss Webster (CFW), mouse, in vivo, sc; subcutaneous administration, tested 30 minutes after dosing; read-out: ED50 (ability to remain on the rotarod). How it is done:
This model can be used to determine the dose of a compound or composition at which unwanted side effects (muscle tone/motor coordination deficits) occur. Animals (C57 Mice) are placed on a rotarod treadmill (model V EE/85, Columbus Instruments, Columbus, Ohio) accelerating from 1 to 80 revolutions/4 minutes. All mice are given two control trials at least 12 hours before oral administration evaluation of compounds. Mice are tested on the rotarod 30 minutes after administration of compounds. The number of seconds each mouse remained on the rotarod is recorded.
Doses at which the coordination of an animal is decreased or at which its motor function is altered, such that the ability of the animal to remain on the rotarod is reduced, are determined. Doses below this are selected for further evaluation.
Male Swiss Webster (CFW) mice were placed on a rotarod (model V EE/85, Columbus Instruments, Columbus, Ohio) accelerating from 1 to 80 revolutions/4 minutes. All mice were given two control trials at least 12 hours before administration of the present compounds for evaluation. Mice were tested on the rotarod 30 minutes after subcutaneous administration of compounds. The number of seconds each mouse remained on the rotarod was recorded. Compounds that decreased coordination or altered motor function reduced the ability of the animal to remain on the rotarod.

Data set [2] concerns C57/BL6 male mice. Nature of the data set: Contextual fear conditioning in an open field model. It counts as in vivo. To be noted: 3.0 mg/kg subcutaneously for 10 consecutive days, tested day 16 after 5 day wash out. How it is done:
Response to the development of contextual fear conditioning in an open field model, a model for PTSD, was evaluated in C57/BL6 male mice using the Kinder Scientific MotorMonitor System (Version 3.11, Kinder Scientific, Poway, Calif.). On Day 1 (Trauma Induction Day), animals were pretreated with compound 30 minutes prior to trauma induction and placed in a cage with a shock-grid floor. Locomotor activity was evaluated by an automated open field system with infrared photo-beams. The mice were placed in the center of the cage and the following variables of motor activity were recorded: locomotor activity, fine movement, and rearing. Animals were placed in the chamber for a total of 300 seconds. After 230 seconds, a 10 second, 2.0 mA electric footshock was administered. Mice remained in the chamber for an additional minute. Mice were then injected subcutaneously for 10 consecutive days (starting 24 hours post trauma induction) with either Compound A (3.0 mg/kg) or vehicle. On day 16, following a 5 day wash out period, mice were exposed to the traumatic environment without shock for 5 minutes. Total ambulatory activity was compared between Day 1 and Day 16.

The test system of data set [3] is C57/BL6 male mice. Nature of the data set: Contextual fear conditioning in a passive avoidance model. It counts as in vivo. As to the method: The passive avoidance model is an example of a fear conditioning behavior. To perform this test, animals were trained and tested in a Kinder Scientific avoidance system consisting of a shuttle box with a shock grid floor. On day one, mice were introduced to the system by being allowed to move freely between a darkened side and a lighted side of the shuttle box for 3 minutes after a 1 minute acclimation in the dark. Day two (24 hours later) was similar to the first day except that animals received a 1.0 mA foot shock after crossing to the dark compartment. Vehicle or test compounds are administered subcutaneously 30 minutes prior to this training day. Twenty four hours after the training day, animals were put back in the shuttle box and after a minute acclimation period in the dark, the latency to cross from the lighted to the dark compartment (now with the shock off) was recorded.
Response to the development of contextual fear conditioning in an open field model was evaluated in C57/BL6 male mice using an avoidance shuttle chamber (Kinder Scientific, Poway, Calif.). On Day 1, mice were allowed to run through the shuttle box for 3 minutes in order to acclimate them to it. One side was light and the other was dark. One Day 2, animals were dosed subcutaneously […] prior to training. […] The latency to cross to the dark side was recorded, with a 3 minute maximum testing duration.

For data set [4], the system named is C-57 mice. The data set is described as follows: Conditioned avoidance response (CAR) model. In kind it is in vivo. From the text: The Condition Avoidance Responding (CAR, active avoidance) model is a measure of cognitive and attention impairment. It evaluates the disruption of avoidance (increased latency) without disruption of escape (extrapyramidal motor function).
The training of C-57 mice consists of 20 trials with variable inter-trial intervals (trained to 80% Avoidance Criteria). After a one-minute acclimation period, the house light and an acoustic 90 decibel tone (conditioned stimuli) are presented. A response (crossing to dark compartment) within 5 seconds ends the trial and trial is recorded as avoidance response (CAR). […] To avoid shock, animals learn to move from the lighted side of the − chamber to the dark side when the cue is presented (avoidance) or moved when the shock is administered (escape). Compounds that disrupt cognition in the CAR model can be excluded from candidate consideration.
(§1) The present compounds were tested in the conditioned avoidance response (CAR) model and in the Spontaneous Activity model described above.

Data set [5] has as its system mice. Nature of the data set: Spontaneous Activity model (locomotor activity). In kind it is in vivo.
Excerpt: Ambulatory and non-ambulatory activity can be used to test spontaneous and drug-induced motor activity. The test can be used to profile the potential for a drug to induce hyperactivity or sedation.
In this model, Kinder Scientific photobeam activity monitors are used to record the ambulatory and non-ambulatory motor activity. The monitors track the photobeam breaks made by the animal that are used to calculate the number of ambulatory and fine (non-ambulatory) motor movements. A drug-induced increase in activity can indicate the potential for an adverse event such as hyperactivity. A drug-induced decrease in response can indicate the potential for an adverse event such as sedation. Doses at which no significant change in activity are recorded, and more preferably at which no change in activity are recorded, can be selected for further evaluation.
as §1

[6] abbreviates: subcutaneous, doses of up to 10 mg/kg.

Turning to `O=C1CCCc2c1ccn2CCN1CCN(c2cccc(Cl)c2)CC1` [Compound A, 1-{2-[4-(3-Chlorophenyl)piperazin-1-yl]ethyl}-1,5,6,7-tetrahydroindol-4-one], in data set [1], the ED50 at 30 min is 23 mg/kg. Besides, in data set [2], the “suppressed basic movements compared to vehicle treated animals (FIG. 2)” value is given as “displayed a reduction in suppressed basic movements”. Also, the “latency to cross over to the dark side compared to vehicle (FIG. 3)” value in data set [3] (dosed subcutaneously 20 minutes prior to training, tested 24 hours later) is given as “showed a reduction in latency to cross over to the dark side”. Besides, in data set [3] (testing on Days 3-5 post-shock administration), the “duration of the improvement in latency” value is given as “three consecutive days of testing”. Further, the “minimum effective dose, Conditioned Avoidance Response” value in data set [4] (models unwanted side effects) is >10 mg/kg. Further, the “effect in the CAR model compared to vehicle treated mice” value in data set [4] (setting [6]) is reported as “did not produce any effect”. The “minimum effective dose, Locomotor Activity” value in data set [5] (models unwanted side effects) was >10 mg/kg. The “effect in the Spontaneous Activity model compared to vehicle treated mice” value in data set [5] (setting [6]) is on record as “did not produce any effect”.
